Here are results for 26 compounds from patent US20250228835A1, “PYRIDINYLOXYPYRIDINES AND RELATED COMPOUNDS AND THEIR USE IN TREATING MEDICAL CONDITIONS” (Rectify Pharmaceuticals, Inc., priority 2024, published 2025).

This test addresses T1, ABCC6 WT (Homo sapiens, UniProt O95255).
T1 construct: expressed in transfected cells; host or cells: HEK-293 (transient, Lipofectamine 2000)
Put plainly: ABCC6 WT assay: HiBit protein expression. The settings on record: HEK-293 cells transiently expressing HiBit-tagged ABCC6 WT; 24 h treatment; top concentration 20 μM; read-out: ABCC6 WT EC50, Emax. It is filed as cell-based. The procedure, abridged:
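HEK-293 cells transiently transfected with HiBit-tagged human ABCC6 WT cDNA, seeded 24 h post-transfection, treated 24 h at 37° C with ten 2-fold doses (top 20 μM final, 0.15% DMSO). HiBit lytic luminescence reports protein expression; Emax and EC50 derived.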
On the technique in general: HiBiT is a short tag that completes a luciferase, so light tracks the accessible tagged protein.

As a reminder, the EC50 is the concentration that produces a half-maximal response.

T1 sequence (O95255 whole entry): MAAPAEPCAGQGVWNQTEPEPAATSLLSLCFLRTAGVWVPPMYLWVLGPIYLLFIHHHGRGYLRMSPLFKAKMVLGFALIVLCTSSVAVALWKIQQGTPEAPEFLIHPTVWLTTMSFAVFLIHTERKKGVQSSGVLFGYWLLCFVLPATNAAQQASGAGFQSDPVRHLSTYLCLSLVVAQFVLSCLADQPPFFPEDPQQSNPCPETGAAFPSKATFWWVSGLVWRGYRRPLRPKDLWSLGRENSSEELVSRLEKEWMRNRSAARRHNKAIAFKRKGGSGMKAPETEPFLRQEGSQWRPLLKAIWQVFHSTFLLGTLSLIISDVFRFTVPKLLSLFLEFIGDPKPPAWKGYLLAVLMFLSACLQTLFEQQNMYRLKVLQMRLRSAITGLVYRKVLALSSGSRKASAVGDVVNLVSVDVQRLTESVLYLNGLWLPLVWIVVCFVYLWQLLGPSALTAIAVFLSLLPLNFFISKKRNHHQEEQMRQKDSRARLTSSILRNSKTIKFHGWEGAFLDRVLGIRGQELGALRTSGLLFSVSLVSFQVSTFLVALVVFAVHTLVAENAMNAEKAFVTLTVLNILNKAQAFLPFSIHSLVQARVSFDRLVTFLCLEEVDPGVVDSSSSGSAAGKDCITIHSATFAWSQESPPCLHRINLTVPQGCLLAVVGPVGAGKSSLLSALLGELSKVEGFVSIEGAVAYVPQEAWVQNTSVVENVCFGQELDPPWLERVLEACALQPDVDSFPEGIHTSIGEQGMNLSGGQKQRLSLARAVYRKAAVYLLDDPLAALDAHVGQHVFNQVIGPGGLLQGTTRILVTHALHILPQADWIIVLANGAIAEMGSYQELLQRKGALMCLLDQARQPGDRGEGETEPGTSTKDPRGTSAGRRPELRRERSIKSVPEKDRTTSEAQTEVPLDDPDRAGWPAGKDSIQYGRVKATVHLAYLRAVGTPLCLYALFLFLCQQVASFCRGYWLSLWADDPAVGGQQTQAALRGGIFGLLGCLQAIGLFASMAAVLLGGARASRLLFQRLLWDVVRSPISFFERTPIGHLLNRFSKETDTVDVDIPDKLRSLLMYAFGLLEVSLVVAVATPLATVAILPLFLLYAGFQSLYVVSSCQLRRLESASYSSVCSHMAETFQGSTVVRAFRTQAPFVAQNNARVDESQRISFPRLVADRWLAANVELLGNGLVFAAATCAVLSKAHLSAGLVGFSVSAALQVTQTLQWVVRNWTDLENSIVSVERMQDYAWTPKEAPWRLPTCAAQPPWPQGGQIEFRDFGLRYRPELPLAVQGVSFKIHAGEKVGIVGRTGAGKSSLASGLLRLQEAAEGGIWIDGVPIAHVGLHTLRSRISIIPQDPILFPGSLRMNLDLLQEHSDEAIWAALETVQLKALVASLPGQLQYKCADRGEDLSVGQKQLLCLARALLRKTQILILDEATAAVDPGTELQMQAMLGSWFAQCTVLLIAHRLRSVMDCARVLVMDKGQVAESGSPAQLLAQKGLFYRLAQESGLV

Turning to `Cc1cc(C)c(Oc2nc(N3CC4CC3CN4C(=O)C3CC3)ccc2NS(C)(=O)=O)c(C)c1` (single isomer, unassigned) [Compound I-18], the EC50 lay within 1 to 10 µM.

With `Cc1cc(C)c(Oc2nc(N3CC4CC3CN4C(=O)C3CC3)ccc2NS(C)(=O)=O)c(C)c1` (single isomer, unassigned) [Compound I-19], the EC50 was ≥ 25 µM.

Turning to `Cc1cc(C)c(Oc2nc(N3CCC(C#N)C3)ccc2NS(C)(=O)=O)c(C)c1` (single isomer, unassigned) [Compound I-261], the EC50 is 1 to 10 µM.

In the case of `Cc1cc(C)c(Oc2nc(N3CCC(C#N)C3)ccc2NS(C)(=O)=O)c(C)c1` (single isomer, unassigned) [Compound I-262], the EC50 fell in the range of 1 to 10 µM.

As for `Cc1cc(C)c(Oc2nc(N3CCN(C(=O)C4CC4)CC3)ccc2NS(C)(=O)=O)c(C2CC2)n1` [Compound I-20], the 50% effective concentration (EC50) lay in the range of 1 to 10 µM.

On to `Cc1cc(C)c(Oc2nc(N3CCn4c(C)nnc4C3)ccc2NS(C)(=O)=O)c(C)c1` [Compound I-21], for which the EC50 lay in the range of 1 to 10 µM.

Regarding `Cc1cc(C)c(Oc2nc(N3CC4CC(C3)N4C(=O)C3CC3)ccc2NS(C)(=O)=O)c(C)c1` [Compound I-22], the EC50 was 1 to 10 µM.

In the case of `Cc1cc(C)c(Oc2nc(N3CCN(C(=O)C4COC4)CC3)ccc2NS(C)(=O)=O)c(C)c1` [Compound I-23], the EC50 is 10 to 25 µM.

As to `Cc1cc(C)c(Oc2nc(N3CCN(C(=O)C4CCC4)CC3)ccc2NS(C)(=O)=O)c(C)c1` [Compound I-24], the EC50 is < 1 µM.

Regarding `Cc1cc(C)c(Oc2nc(N3CCC4(CN(C(=O)C5CC5)C4)C3)ccc2NS(C)(=O)=O)c(C)c1` [Compound I-25], the half-maximal effective concentration (EC50) lay in the range of 1 to 10 µM.

For `Cc1cc(C)c(Oc2nc(N3CCN(S(C)(=O)=O)CC3)ccc2NS(C)(=O)=O)c(C)c1` [Compound I-26], the 50% effective concentration (EC50) was ≥ 25 µM.

On to `CNC(=O)N1CCN(c2ccc(NS(C)(=O)=O)c(Oc3c(C)cc(C)cc3C)n2)CC1` [Compound I-27], for which the concentration for a half-maximal effect (EC50) was 10 to 25 µM.

`Cc1cc(C2CC2)nc(C)c1Oc1nc(N2CCN(C(=O)C3CC3)CC2)ccc1NS(C)(=O)=O` [Compound I-28]: the EC50 was ≥ 25 µM.

Consider `Cc1cc(C)c(Oc2nc(-c3cncc(Cl)c3)ccc2NS(=O)(=O)C(C)C)c(C)c1` [Compound I-29], for which the EC50 is < 1 µM.

On to `Cc1cc(C)c(Oc2nc(N3CCn4c(cnc4C)C3)ccc2NS(C)(=O)=O)c(C)c1` [Compound I-30], for which the EC50 lay within 1 to 10 µM.

Take `Cc1cc(C)c(Oc2nc(N3CC4(CCN(C(=O)C5CC5)C4)C3)ccc2NS(C)(=O)=O)c(C)c1` [Compound I-31]: the 50% effective concentration (EC50) was 1 to 10 µM.

For the compound `Cc1cc(C)c(Oc2nc(N3CCN(C(=O)OC(C)C)CC3)ccc2NS(C)(=O)=O)c(C)c1` [Compound I-32], the half-maximal effective concentration (EC50) was 1 to 10 µM.

As for `Cc1cc(C)c(Oc2nc(N3CCN(C(=O)N(C)C)CC3)ccc2NS(C)(=O)=O)c(C)c1` [Compound I-33], the concentration giving a half-maximal response (EC50) fell in the range of 1 to 10 µM.

On to `Cc1cc(C)c(Oc2nc(N3CCN(C(=O)C(C)(C)C)CC3)ccc2NS(C)(=O)=O)c(C)c1` [Compound I-34], for which the EC50 lay in the range of 1 to 10 µM.

On to `Cc1cc(C)c(Oc2nc(N3C4CC3CN(C(=O)C3CC3)C4)ccc2NS(C)(=O)=O)c(C)c1` [Compound I-35], for which the EC50 was ≥ 25 µM.

`Cc1cc(C)c(Oc2nc(-c3cnc(C#N)c(Cl)c3)ccc2NS(C)(=O)=O)c(C)c1` [Compound I-36]: the 50% effective concentration (EC50) was < 1 µM.

With `Cc1cc(C2CC2)nc(C)c1Oc1nc(-c2cncc(Cl)c2)ccc1NS(C)(=O)=O` [Compound I-37], the EC50 was < 1 µM.

Turning to `Cc1cc(C)c(Oc2nc(N3CC4(CN(C(=O)C5CC5)C4)C3)ccc2NS(C)(=O)=O)c(C)c1` [Compound I-38], the EC50 was ≥ 25 µM.

Consider `Cc1cc(C)c(Oc2nc(-c3cncc(C#N)c3)ccc2NS(C)(=O)=O)c(C)c1` [Compound I-39], for which the EC50 was < 1 µM.

As to `Cc1cc(C)c(Oc2nc(-c3cncc(Cl)c3)ccc2NS(C)(=O)=O)c(C2CC2)n1` [Compound I-40], the EC50 was < 1 µM.

As for `Cc1cc(C)c(Oc2nc(-c3cncc(Cl)c3)ccc2NS(=O)(=O)C2COC2)c(C)c1` [Compound I-41], the EC50 was < 1 µM.
